Measurements published in US20120214847A1, “2-[1-PHENYL-5-HYDROXY-4a-SUBSTITUTED-HEXAHYDROCYCLOPENTA[F]INDAZOL-5-YL]ETHYL PHENYL DERIVATIVES AS GLUCOCORTICOID RECEPTOR LIGANDS” (Merck Sharp & Dohme Corp., priority 2009, published 2012).

Target: T1, human GR (Homo sapiens, UniProt P04150)
T1 construct: naturally expresses the human GR; endogenous in cells
T1 sequence (P04150 1-777): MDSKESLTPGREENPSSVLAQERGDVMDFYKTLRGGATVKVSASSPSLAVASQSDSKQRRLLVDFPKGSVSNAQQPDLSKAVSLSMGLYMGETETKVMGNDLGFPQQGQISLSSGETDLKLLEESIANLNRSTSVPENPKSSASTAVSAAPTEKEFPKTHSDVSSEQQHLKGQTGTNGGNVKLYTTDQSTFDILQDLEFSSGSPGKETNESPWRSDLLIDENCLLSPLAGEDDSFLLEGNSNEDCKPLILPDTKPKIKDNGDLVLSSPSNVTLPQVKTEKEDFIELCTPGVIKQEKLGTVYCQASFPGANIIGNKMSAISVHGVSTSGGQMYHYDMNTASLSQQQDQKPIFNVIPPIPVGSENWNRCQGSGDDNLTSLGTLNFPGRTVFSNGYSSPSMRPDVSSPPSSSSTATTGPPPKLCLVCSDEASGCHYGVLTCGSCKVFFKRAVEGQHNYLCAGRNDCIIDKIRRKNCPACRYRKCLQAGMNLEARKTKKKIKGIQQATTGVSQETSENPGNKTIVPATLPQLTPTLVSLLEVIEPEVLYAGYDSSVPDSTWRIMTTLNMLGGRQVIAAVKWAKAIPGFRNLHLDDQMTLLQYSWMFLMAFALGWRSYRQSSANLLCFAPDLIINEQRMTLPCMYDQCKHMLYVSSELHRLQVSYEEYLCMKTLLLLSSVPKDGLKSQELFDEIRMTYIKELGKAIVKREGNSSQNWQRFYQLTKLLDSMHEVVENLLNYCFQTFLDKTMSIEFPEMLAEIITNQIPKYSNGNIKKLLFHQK
Assay: Transrepression assay (GITAR), TNFα-β-lactamase reporter in U937 cells
Format: cell-based
Details: for EC50 / Transrepression U937 Cells GITAR Emax (%): U937 cells; for EC50: IP = inflection point; for Transrepression U937 Cells GITAR Emax (%) / Emax: activity repressed by 100 nM dexamethasone alone set as 100%; for Emax: U-937, U937 cells
In short: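 U937 cells stably carrying TNFα promoter–β-lactamase, endogenous GR, preincubated with compound 30–45 min at 37° C., then stimulated with 5 ng/ml PMA plus 100 ng/ml LPS for ~18 h. CCF2-AM read-out; repression by 100 nM dexamethasone set as 100%.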

Compound | EC50 | Transrepression U937 Cells GITAR Emax (%) | Emax
NC(=O)C(O)c1ccccc1CC[C@]1(O)CCC2=Cc3c(cnn3-c3ccc(F)cc3)C[C@@]21C1CC1 (single isomer, unassigned) [Example 3a] | 85 nM | 72% | 
OC(C[C@]1(O)CCC2=Cc3c(cnn3-c3ccc(F)cc3)C[C@@]21C1CC1)c1ccc(F)cn1 (single isomer, unassigned) [Example 79b] | 282 nM | 54% | 
CC[C@]12Cc3cnn(-c4ccccc4)c3C=C1CC[C@@]2(O)CC(O)c1ccccn1 (single isomer, unassigned) [Example 82a] | 217 nM | 54% | 
CC[C@]12Cc3cnn(-c4ccccc4)c3C=C1CC[C@@]2(O)CC(O)c1ccccn1 (single isomer, unassigned) [Example 82b] | 277 nM | 44% | 
OCc1ccccc1CC[C@]1(O)CCC2=Cc3c(cnn3-c3ccc(F)cc3)C[C@@]21C1CC1 [Example 2, (4aR,5R)-4a-Cyclopropyl-1-(4-fluorophenyl)-5-{2-[2-(hydroxymethyl)phenyl]ethyl}-1,4,4a,5,6,7-hexahydrocyclopenta[f]indazol-5-ol] | 8 nM |  | 79%
CC[C@]12Cc3cnn(-c4ccc(F)cc4)c3C=C1CC[C@@]2(O)CCc1ncccc1S(C)(=O)=O [Example 80, (4aS,5R)-4a-Ethyl-1-(4-fluorophenyl)-5-{2-[3-(methylsulfonyl)pyridin-2-yl]ethyl}-1,4,4a,5,6,7-hexahydrocyclopenta[f]indazol-5-ol] | 56 nM |  | 70%
CC[C@]12Cc3cnn(-c4ccccc4)c3C=C1CC[C@@]2(O)CCc1ncccc1S(=O)(=O)C(C)C [Example 81, (4aS,5R)-4a-Ethyl-5-{2-[3-(iso-propylsulfonyl)pyridin-2-yl]ethyl}-1-phenyl-1,4,4a,5,6,7-hexahydrocyclopenta[f]indazol-5-ol] | 53 nM |  | 68%
